From US10154958B1 (King Abdulaziz University, priority 2017, dated 2018)
Marks after values point to notes of the source that are not given here.

Assays:
[1] = tested on: Trichomonas vaginalis; test: In vitro susceptibility of Trichomonas vaginalis isolates (flagellar motility); type: cell-based; conditions: 37° C.; for Mean % cells with motility after 48 hrs of aerobic contact: 500 cells/100 μL + 100 μL composition or metranidazole 25 μg/ml
Experimental: Fresh isolates of Trichomonas vaginalis were collected from 30-38 years old women. The procedure of vaginal smearing and reconstituting medium of the collected specimens were performed according to the procedure in Meingassner and Thumer, Antimicrobial agents and Chemotherapy, Vol 15, pp 254-257,1979, incorporated herein by reference in its entirety. Each isolate was adjusted to a viable count of 5,000 cells/ml, using a hemocytometer. A reconstituting diluent, Diamond's TYM supplemented with 10% horse serum, was used. The isolates were tested with the composition and a commonly used drug, metranidazole.
The number of cells in each well was 500 cells/100 μL of medium. […] Metranidazole was included as a reference at a concentration of 25 μg/ml. Metranidazole (100 μL) was also kept in contact with 500 cells/100 μL of the 20 isolates of Trichomonas vaginalis in the presence of oxygen for 48 hours at 37° C. Control triplicate wells were included in which the Trichomonas vaginalis cells of each of the 20 isolates were put in contact with equal volume of Diamond's TYM supplemented with 10% horse serum. The motility of flagella of the cells was observed after 48 hrs under an inverted-phase contrast microscope. The percentage of cells losing flagellar motility was determined.

[2] = tested on: Gardnerella vaginalis; test: Disc diffusion susceptibility of Gardnerella vaginalis isolates; type: cell-based; conditions: of the 20 isolates of Gardnerella vaginalis; reference disc 5 mcg/disc
Experimental: Twenty isolates of each of Gardnerella vaginalis and Candida albicans were collected from human vaginosis cases. […] The disc diffusion method was used. For Gardnerella vaginalis, the Mueller-Hinton agar supplemented with 5% human serum medium was used.
The discs were incubated aerobically for 48 hrs at 35° C., the diameter of the discs inhibition zones were measured in millimeter, and interpreted by using the chart provided by Hudzicki, American Society for Microbiology, www.asm.org.2013, incorporated herein by reference in its entirety.

Cc1ncc([N+](=O)[O-])n1CCO [Metranidazole, metranidazole]
Mean % cells with motility after 48 hrs of aerobic contact ([1]; isolate 1): 4.0% | Mean % cells with motility after 48 hrs of aerobic contact ([1]; isolate 2): 0.0% | Mean % cells with motility after 48 hrs of aerobic contact ([1]; isolate 3): 1.5% | Mean % cells with motility after 48 hrs of aerobic contact ([1]; isolate 4): 5.4% | Mean % cells with motility after 48 hrs of aerobic contact ([1]; isolate 5): 7.4% | Mean % cells with motility after 48 hrs of aerobic contact ([1]; isolate 6): 0.0% | Mean % cells with motility after 48 hrs of aerobic contact ([1]; isolate 7): 9.3% | Mean % cells with motility after 48 hrs of aerobic contact ([1]; isolate 8): 5.6% | Mean % cells with motility after 48 hrs of aerobic contact ([1]; isolate 9): 8.4% | Mean % cells with motility after 48 hrs of aerobic contact ([1]; isolate 10): 10.4% | Mean % cells with motility after 48 hrs of aerobic contact ([1]; isolate 11): 0.0% | Mean % cells with motility after 48 hrs of aerobic contact ([1]; isolate 12): 4.2% | Mean % cells with motility after 48 hrs of aerobic contact ([1]; isolate 13): 0.0% | Mean % cells with motility after 48 hrs of aerobic contact ([1]; isolate 14): 6.7% | Mean % cells with motility after 48 hrs of aerobic contact ([1]; isolate 15): 8.5% | Mean % cells with motility after 48 hrs of aerobic contact ([1]; isolate 16): 11.4% | Mean % cells with motility after 48 hrs of aerobic contact ([1]; isolate 17): 7.4% | Mean % cells with motility after 48 hrs of aerobic contact ([1]; isolate 18): 8.2% | Mean % cells with motility after 48 hrs of aerobic contact ([1]; isolate 19): 9.7% | Mean % cells with motility after 48 hrs of aerobic contact ([1]; isolate 20): 1.2% | Mean % cells with motility after 48 hrs of aerobic contact, Mean of Means ([1]; mean of means of the 20 isolates, composition or metranidazole 25 μg/ml): 5.5^a % | number of isolates resistant to the reference disc [2]: one
